US7842324B2 (Senomyx, Inc., priority 2005, dated 2010)

System: tasters
Experiment: Reduced sugar frosted breakfast cereal sensory evaluation
Format: in vivo, human
Conditions: for Avgage Sweet Intensity Score: scale 1 to 10
Method: A 100 gram sample of a solid sweetener concentrate composition was prepared from 1.000 g of compound 23 and 99.000 g of 10 D.E. maltodextrin. “DE” i.e. “[…]” is a measure of the degree of depolymerization of the corn starches used to manufacture maltodextrins. Fifty grams of the maltodextrin was placed on the bottom of a clean and dried mortar and the 1.000 gr of compound 23 was added to the maltodextrin and slowly ground and mixed into the maltodextrin. The remaining 50 grams of maltodextrin was added to a planetary mixer with a wire whip attachment (KITCHEN AIDE™ Mixer), then the contents of the mortar were placed into the mixer and the mixer was turned on to a slow speed (setting 3), and allowed to mix for 10 minutes. A rubber spatula was used to scrap the walls and bottom of the bowl, then the mixture was blended on low for another 15 minutes. The 100× diluted solid sweetener concentrate composition was stored in an air tight amber glass container. The contents were mixed in the glass container before taking out aliquots of the dry diluted sweet enhancer.
Using the KITCHEN AIDE™ Mixer with the wire whip attachment, the granulated sugar, powdered sugar, gum arabic, dextrin, and the 1:100 diluted sweetener concentrate composition were mixed at speed 3. Water and the HFCS were placed into a 1000 mL stainless steel cylinder and mixed using a LIGHTNIN™ Mixer at 500 to 650 rpms using a 2.5 inch (6.35 cm) impeller with three straight blades until the HFCS was dissolved (5 minutes). A vortex was created by positioning the impeller blades at a 30 to 45° angle. The dry/sugar/gum dry blend was added to the vortex very slowly and allowed to mix until the sugar dissolved and the gum rehydrated. An additional 10 minute mixing time was allowed after the last of the dry blend was added, to form the frosting. […]
Frosted corn flake cereal samples were evaluated using a rank rating design by tasters. […]

CC(C)CNC(=O)C(C)(C)c1ccc(-c2cncc(C#N)c2)cc1 [Compound 23, 2-(4-(5-cyanopyridin-3-yl)phenyl)-N-isobutyl-2-methylpropanamide]
sweetness compared with fully sugar frosted cornflake control (9.6 ppm in frosting): almost as much sweetness as the fully sugar frosted cornflake control | Avgage Sweet Intensity Score (⅔ sugared frosted corn flakes + 6.6 ppm): 7.5 | Avgage Sweet Intensity Score (⅔ sugared frosted corn flakes + 9.6 ppm): 7.81
